According to patent US9533017B2, “Saccharomyces cerevisiae yeast for preventing and/or treating vaginal mycoses” (LESAFFRE ET COMPAGNIE, priority 2012, dated 2017):
“Also recorded” adds a separate entry of the source.

How the values were obtained:
Candida albicans [1] = assay: Cytologic analysis of vaginal washes (MGG staining), inflammation; assay type: in vivo, rat
Procedure: The smears are prepared from a cervical sample and from washes.
Preparations of cells in a thin layer on slides are prepared from combined washes in each group of rats (washes from 5 rats) using a cytocentrifuge (Cytospin®). The slides are fixed using an aerosol cytologic fixative (Cytoral®).
Conventional May Grunwaid Giemsa staining is carried out for evaluating the level of inflammation in the groups of rats that received C. albicans alone or combined with the treatment with the Sc I-3856 yeast.
Slides are prepared from the combined vaginal washes and MGG staining is carried out in order to evaluate the appearance of the vaginal epithelial cells, the presence of bacteria and yeasts and the presence of proinflammatory cells.
For cytologic investigation of the vaginal washes, slides are prepared from the combined vaginal washes and MGG staining is carried out.
The appearance of the vaginal epithelial cells, the presence of bacteria and yeasts and the presence of proinflammatory cells are evaluated by observation (results not shown).

Candida albicans [2] = assay: Rat model of vaginal candidosis: viable C. albicans in the vaginal mucosa (cervico-uterine smears on Chrom-Agar plates); assay type: in vivo; conditions: for mean growth of the colonies of C. albicans on Chrom-Agar plates (smears): fluconazole 50 μg intravaginal 1 h, 24 h, 48 h after infection
Procedure: (§1) Ovariectomized female rats (Sprague-Dawley) aged from 3 to 5 weeks are purchased from Janvier Laboratoires, France. They are maintained under pseudo-estrus by a subcutaneous injection of estradiol benzoate (Sigma, estradiol benzoate resuspended in sesame oil; 0.5 mg/animal) every other day (i.e. three times per week) up to the end of the experiment.
(§2) A week after the first injection of estradiol inducing pseudo-estrus, the female rats are infected with C. albicans. Infection with C. albicans corresponds to a single intravaginal administration of the C. albicans strain at a concentration of 10^7 CFU.
(§3) Fluconazole is administered by the intravaginal route at a dose of 50 μg per rat, respectively 1 h, 24 h and 48 h after infection with C. albicans. […]
The number of colonies of C. albicans adhering to the vaginal mucosa is evaluated every two days after infection with Candida albicans and up to the end of the experiment (3 weeks later) by taking a cervico-uterine smear (with a calibrated loop) and by spreading on Chrom-Agar plates (a growth medium specific and selective for Candida), 5 vaginal samples being combined.
The viable colonies of Candida albicans are counted after two days of culture at 30° C. on a selective medium (Chrom-Agar plates, BD).
Another way of expressing the results is to calculate the area under the curve (AUC) between day 2 and day 12, which represents a quantitative marker of the presence of viable C. albicans in the vaginal mucosa of rats receiving or not receiving fluconazole.

Candida albicans [3] = assay: Antigen with mannoside structure of C. albicans in combined vaginal washes (ICT strips); assay type: in vivo, rat; conditions: combined washes from 5 rats; fluconazole vs untreated infected rats
Description: Detection of an antigen of C. albicans is useful for diagnosing vaginal candidosis. The antigen comprises a highly immunogenic mannoside structure present in the cell wall of C. albicans. The antigen with mannoside structure is the main antigen present in vaginal infection, it therefore constitutes a useful biomarker for diagnosing […] candidosis.
Another possibility for detecting the presence of the antigen with mannoside structure consists of using ICT strips (Candi Vagi, SR2B). “ICT” is based on capture of the antigen contained in the vaginal secretions using a mouse immunoglobulin IgM directed against the antigen with mannoside structure. The monoclonal antibody recognizes the epitopes of the antigen with mannoside structure for a wide range of Candida species. The monoclonal antibody is conjugated to particles or in a mobile phase and is also applied on a nitrocellulose strip as capture antibody. The ICT stick is put in the suspension of vaginal sample and the samples move by capillary action through the block containing the “MAb-gold” conjugate (Mab for monoclonal antibody). The analysis is performed as described in the publication Marot-Leblond et al., Journal of Clinical Microbiology, 2009.
The antigen with mannoside structure is quantified using non-commercial strips in combined washes from 5 rats.

Candida albicans [4] = assay: Rat model of vaginal candidosis: viable C. albicans in the vaginal mucosa (cervico-uterine smears on Chrom-Agar plates); assay type: in vivo; parameters: AUC values (D2 to D13): unit not given beside the values; conditions: fluconazole 50 μg 1 h, 24 h, 48 h after infection
Candida albicans [5] = assay: Rat model of vaginal candidosis: viable C. albicans CFUs in vaginal washes; assay type: in vivo; parameters: AUC values (D 2-13): unit not given beside the values; conditions: for number of C. albicans CFUs determined from the washes: fluconazole 50 μg intravaginal 1 h
Procedure: as §1, §2, §3
The viable colonies of Candida albicans are counted after two days of culture at 30° C. on a selective medium (Chrom-Agar plates, BD). […]
The number of C. albicans (in CFU) is determined from cervico-uterine smears and washes as described above.

OC(Cn1cncn1)(Cn1cncn1)c1ccc(F)cc1F [fluconazole]
cytology of vaginal washes: inflammatory cells (Candida albicans [1]; day 2, fluconazole): prevents inflammatory infiltration
cytology of vaginal washes: C. albicans and inflammatory cells (Candida albicans [1]; day 12, fluconazole): not one C. albicans cell is observed and only a few macrophages and neutrophils are present; also recorded: no C. albicans is observed, but some macrophages and neutrophils are observed
presence of C. albicans on slides of vaginal washes (Candida albicans [1]; day D2 (by context), yeast as prophylactic or therapeutic treatment): presence of C. albicans is observed
mean growth of the colonies of C. albicans on Chrom-Agar plates (smears) (Candida albicans [2]; day 2): 5.25 CFU
mean growth of the colonies of C. albicans on Chrom-Agar plates (smears) (Candida albicans [2]; day 5): 25 CFU
mean growth of the colonies of C. albicans on Chrom-Agar plates (smears) (Candida albicans [2]; day 7): 42 CFU
mean growth of the colonies of C. albicans on Chrom-Agar plates (smears) (Candida albicans [2]; day 10): 17 CFU
infection of the vaginal mucosa with C. albicans on day 12 (Candida albicans [2]; day 12, fluconazole): absence of infection with C. albicans; also recorded: prevent infection with Candida albicans completely
mean growth of the colonies of C. albicans on Chrom-Agar plates (smears) (Candida albicans [2]; day 13): 7 CFU
mean growth of the colonies of C. albicans on Chrom-Agar plates (smears) (Candida albicans [2]; day 15): 34.45 CFU
mean growth of the colonies of C. albicans on Chrom-Agar plates (smears) (Candida albicans [2]; day 17): 24.4 CFU
mean growth of the colonies of C. albicans on Chrom-Agar plates (smears) (Candida albicans [2]; day 20): 8.8 CFU
mean growth of the colonies of C. albicans on Chrom-Agar plates (smears) (Candida albicans [2]; day 23): 11.8 CFU
mean growth of the colonies of C. albicans on Chrom-Agar plates (smears) (Candida albicans [2]; day 25): 11.6 CFU
decrease in the number of viable C. albicans in the vaginal mucosa (AUC) relative to untreated rats (Candida albicans [2]; first 12 days after infection, fluconazole treatment): 36%
quantity of antigens with mannoside structure (Candida albicans [3]): less in the rats treated with fluconazole than in the untreated rats
AUC values (D2 to D13) (Candida albicans [4]): 236.875
Difference (AUC D2 to D13 vs C. albicans untreated) (Candida albicans [4]): 135.555
decrease in elimination of viable C. albicans (AUC of washes) relative to the untreated rats (Candida albicans [5]; between days 2 and 12, fluconazole): 20%
number of C. albicans CFUs determined from the washes (Candida albicans [5]; day 2, 24 h, 48 h after infection): 9 CFU
number of C. albicans CFUs determined from the washes (Candida albicans [5]; day 5, 24 h, 48 h after infection): 53 CFU
number of C. albicans CFUs determined from the washes (Candida albicans [5]; day 7, 24 h, 48 h after infection): 17 CFU
number of C. albicans CFUs determined from the washes (Candida albicans [5]; day 10, 24 h, 48 h after infection): 3 CFU
number of C. albicans CFUs determined from the washes (Candida albicans [5]; day 13, 24 h, 48 h after infection): 1 CFU
number of C. albicans CFUs determined from the washes (Candida albicans [5]; day 15, 24 h, 48 h after infection): 6 CFU
number of C. albicans CFUs determined from the washes (Candida albicans [5]; day 17, 24 h, 48 h after infection): 7 CFU
number of C. albicans CFUs determined from the washes (Candida albicans [5]; day 20, 24 h, 48 h after infection): 3 CFU
number of C. albicans CFUs determined from the washes (Candida albicans [5]; day 23, 24 h, 48 h after infection): 1 CFU
number of C. albicans CFUs determined from the washes (Candida albicans [5]; day 25, 24 h, 48 h after infection): 4 CFU
percentage of CFUs of C. albicans released/detected in washes in the first phase (D2-D5) (Candida albicans [5]; days 2 to 5, fluconazole): 73%
increase of the elimination of viable C. albicans (Candida albicans [5]; first week after infection, fluconazole): 45%
peak intensity of release of Candida in washes (Candida albicans [5]; fluconazole, first 8 days after infection): 5 days
AUC values (D 2-13) (Candida albicans [5]; washes, fluconazole 50 μg 1 h, 24 h, 48 h after infection): 199
